The source of these data is doi:10.1101/2025.11.20.689572v1 (biorxiv, 2025).

The EC50 is the midpoint of the concentration-response curve. High values mean lower potency in that assay, low ones higher potency in that assay.

One experiment concerns the target HTR1D (Homo sapiens, UniProt P28221). Description: cell-based. Further details: species or system HEK293; TRUPATH BRET2 G-protein dissociation; antagonist mode against agonist EC80. The settings on record: N-Desmethyl Xanomeline, agonist mode.
In another experiment the target is T1, HTR2C (Homo sapiens, UniProt P28335).
T1 sequence (P28335 1-458): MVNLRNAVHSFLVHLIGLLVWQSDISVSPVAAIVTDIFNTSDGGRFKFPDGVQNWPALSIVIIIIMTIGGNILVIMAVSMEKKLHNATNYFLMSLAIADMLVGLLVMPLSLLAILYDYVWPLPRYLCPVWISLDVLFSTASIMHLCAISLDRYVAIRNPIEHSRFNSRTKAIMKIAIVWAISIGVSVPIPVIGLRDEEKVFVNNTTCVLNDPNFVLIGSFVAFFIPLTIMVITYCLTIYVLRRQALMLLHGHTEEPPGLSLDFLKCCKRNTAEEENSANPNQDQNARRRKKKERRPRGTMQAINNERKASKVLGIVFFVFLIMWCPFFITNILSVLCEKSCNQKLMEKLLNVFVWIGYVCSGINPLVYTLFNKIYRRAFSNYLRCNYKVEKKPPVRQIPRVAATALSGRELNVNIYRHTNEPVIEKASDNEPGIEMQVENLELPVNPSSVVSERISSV
Description: cell-based. As to conditions: Assay=Gq; agonist mode. Details: species or system HEK293; TRUPATH BRET2 G-protein dissociation; antagonist mode against agonist EC80.

The next experiment concerns the target T2, 5-HT4 (Homo sapiens, UniProt Q13639).
T2 construct: gene HTR4
Description: biochemical. Further details: species or system HEK293; PDSP competitive radioligand binding, membranes of transfected HEK293 cells, filtration, Ki by Cheng-Prusoff. As to conditions: read-out: N-desmethyl-xanomeline (PDSP) pKi (converted). How it is done: (§1) Competitive radioligand binding assays were performed at the NIMH Psychoactive Drug Screening Program (PDSP) using membranes from transiently transfected HEK293 cells in 96-well format as described. Complete, target-specific protocols are available at the PDSP website (https://pdsp.unc.edu/pdspweb/?site=assays). Primary screenings were run at a single test concentration (10 µM) in quadruplicate. […] Secondary assays were conducted in triplicate using 12-point serial dilutions (0, 0.1, 0.3, 1, 3, 10, 30, 100, 300 nM; 1, 3, 10 µM). Assays were performed in a final volume of 125 µL per well in binding buffer, as detailed in the NIMH PDSP protocols (e.g., standard binding buffer: 50 mM Tris-HCl, pH 7.4, 10 mM MgCl2, 0.1 mM EDTA). Radioligand concentrations were chosen near the target-specific Kd. Total and nonspecific binding were defined in the absence and presence, respectively, of 10 µM reference ligand specific for each receptor. After 90 min incubation at room temperature, reactions were terminated by vacuum filtration onto 0.3% polyethyleneimine-pretreated UniFilter-96 GF/C Microplates using a FilterMate harvester, washed three times with ice-cold buffer (50 mM Tris HCl, pH 7.4), dried, treated with MicroScint-O [compound left out] scintillation cocktails, and counted on a MicroBeta counter. Equilibrium inhibition constants (Ki) were calculated from fitted IC50 values using the Cheng–Prusoff equation [14] with the assay-specific radioligand concentration and Kd. TABLE 1. […] Results represented mean ± SEM from a minimum of 3 independent assays, each in triplicate. ND=not determined.

For a further experiment, the target named is DRD1 (Homo sapiens, UniProt P21728). Put plainly: biochemical. Further details: species or system HEK293; PDSP competitive radioligand binding, membranes of transfected HEK293 cells, filtration, Ki by Cheng-Prusoff. The settings on record: read-out: N-desmethyl-xanomeline (PDSP) pKi (converted). How it is done: as §1
Chain of DRD1 (P21728 whole entry): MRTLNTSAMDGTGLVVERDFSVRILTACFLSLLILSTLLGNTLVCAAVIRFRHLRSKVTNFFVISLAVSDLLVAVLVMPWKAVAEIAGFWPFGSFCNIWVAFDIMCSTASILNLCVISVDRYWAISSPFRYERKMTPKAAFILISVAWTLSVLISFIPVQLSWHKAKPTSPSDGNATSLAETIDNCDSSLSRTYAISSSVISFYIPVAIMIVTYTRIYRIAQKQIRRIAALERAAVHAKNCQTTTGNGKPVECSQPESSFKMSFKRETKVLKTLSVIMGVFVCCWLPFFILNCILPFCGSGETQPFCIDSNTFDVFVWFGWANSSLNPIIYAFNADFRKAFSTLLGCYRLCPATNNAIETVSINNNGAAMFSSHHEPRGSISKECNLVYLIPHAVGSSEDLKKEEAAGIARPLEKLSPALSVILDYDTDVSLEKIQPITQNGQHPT
A further experiment concerns the target T3, 5-HT1E (Homo sapiens, UniProt P28566).
T3 construct: gene HTR1E
Description: biochemical. Further details: species or system HEK293; PDSP competitive radioligand binding, membranes of transfected HEK293 cells, filtration, Ki by Cheng-Prusoff. The method, then:
as §1

The next experiment has as its target T4, 5-HT6 (Homo sapiens, UniProt P50406).
T4 construct: gene HTR6
Put plainly: biochemical. Further details: species or system HEK293; PDSP competitive radioligand binding, membranes of transfected HEK293 cells, filtration, Ki by Cheng-Prusoff. How it is done: as §1

Another experiment addresses T5, DAT (Homo sapiens, UniProt Q01959).
T5 construct: gene SLC6A3
Description: biochemical. Details: species or system HEK293; PDSP competitive radioligand binding, membranes of transfected HEK293 cells, filtration, Ki by Cheng-Prusoff. How it is done: as §1

The next experiment concerns the target HRH4 (Homo sapiens, UniProt Q9H3N8). Description: biochemical. Details: species or system HEK293; PDSP competitive radioligand binding, membranes of transfected HEK293 cells, filtration, Ki by Cheng-Prusoff. How it is done: as §1
For another experiment, the target named is T6, HTR1A (Homo sapiens, UniProt P08908).
T6 sequence (P08908 1-422): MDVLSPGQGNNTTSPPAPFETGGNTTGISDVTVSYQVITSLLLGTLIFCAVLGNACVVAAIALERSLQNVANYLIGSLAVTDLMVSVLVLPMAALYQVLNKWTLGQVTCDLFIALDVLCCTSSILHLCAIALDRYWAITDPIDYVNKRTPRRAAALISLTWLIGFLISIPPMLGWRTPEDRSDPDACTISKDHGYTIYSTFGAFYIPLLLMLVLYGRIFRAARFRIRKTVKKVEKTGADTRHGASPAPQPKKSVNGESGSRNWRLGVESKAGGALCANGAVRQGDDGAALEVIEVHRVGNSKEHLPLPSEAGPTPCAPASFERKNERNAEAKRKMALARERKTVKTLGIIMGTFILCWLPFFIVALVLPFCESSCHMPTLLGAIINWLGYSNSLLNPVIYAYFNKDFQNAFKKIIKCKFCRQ
Put plainly: biochemical. Details: species or system HEK293; PDSP competitive radioligand binding, membranes of transfected HEK293 cells, filtration, Ki by Cheng-Prusoff. How it is done:
as §1

For the next experiment, the target named is T7, β3 (Homo sapiens, UniProt P13945).
T7 construct: gene ADRB3
T7 sequence (P13945 whole entry): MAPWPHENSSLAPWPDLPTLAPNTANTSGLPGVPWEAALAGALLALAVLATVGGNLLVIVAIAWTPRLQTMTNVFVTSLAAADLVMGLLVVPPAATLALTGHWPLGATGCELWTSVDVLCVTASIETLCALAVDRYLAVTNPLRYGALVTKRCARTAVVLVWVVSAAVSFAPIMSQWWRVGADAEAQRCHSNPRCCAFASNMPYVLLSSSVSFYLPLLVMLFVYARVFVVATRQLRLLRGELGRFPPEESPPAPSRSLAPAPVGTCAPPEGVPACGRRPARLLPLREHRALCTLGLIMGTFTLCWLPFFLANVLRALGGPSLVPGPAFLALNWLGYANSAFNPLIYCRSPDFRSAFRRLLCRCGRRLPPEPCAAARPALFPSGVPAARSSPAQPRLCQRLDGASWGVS
Put plainly: biochemical. Further details: species or system HEK293; PDSP competitive radioligand binding, membranes of transfected HEK293 cells, filtration, Ki by Cheng-Prusoff. The method, then: as §1

Chain of HTR1D (P28221 whole entry): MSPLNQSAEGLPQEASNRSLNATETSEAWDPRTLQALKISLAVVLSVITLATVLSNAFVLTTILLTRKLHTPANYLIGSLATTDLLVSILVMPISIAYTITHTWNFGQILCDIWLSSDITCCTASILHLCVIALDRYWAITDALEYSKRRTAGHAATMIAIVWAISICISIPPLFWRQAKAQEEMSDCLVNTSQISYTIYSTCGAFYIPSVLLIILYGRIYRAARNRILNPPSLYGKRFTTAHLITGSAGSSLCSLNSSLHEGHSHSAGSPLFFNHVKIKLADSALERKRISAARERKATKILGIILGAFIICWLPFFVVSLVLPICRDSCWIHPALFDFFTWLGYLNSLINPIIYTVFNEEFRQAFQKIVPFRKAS
T3 sequence (P28566 whole entry): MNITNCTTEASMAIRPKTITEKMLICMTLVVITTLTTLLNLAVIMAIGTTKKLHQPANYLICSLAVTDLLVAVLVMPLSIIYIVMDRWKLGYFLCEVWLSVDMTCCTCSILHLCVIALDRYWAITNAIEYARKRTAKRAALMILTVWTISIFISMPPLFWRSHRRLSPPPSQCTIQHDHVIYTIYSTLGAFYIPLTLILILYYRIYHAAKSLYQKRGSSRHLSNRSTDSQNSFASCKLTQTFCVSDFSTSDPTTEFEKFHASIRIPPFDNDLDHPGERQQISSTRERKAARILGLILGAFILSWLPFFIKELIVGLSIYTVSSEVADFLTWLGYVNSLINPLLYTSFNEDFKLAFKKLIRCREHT
T2 sequence (Q13639 whole entry): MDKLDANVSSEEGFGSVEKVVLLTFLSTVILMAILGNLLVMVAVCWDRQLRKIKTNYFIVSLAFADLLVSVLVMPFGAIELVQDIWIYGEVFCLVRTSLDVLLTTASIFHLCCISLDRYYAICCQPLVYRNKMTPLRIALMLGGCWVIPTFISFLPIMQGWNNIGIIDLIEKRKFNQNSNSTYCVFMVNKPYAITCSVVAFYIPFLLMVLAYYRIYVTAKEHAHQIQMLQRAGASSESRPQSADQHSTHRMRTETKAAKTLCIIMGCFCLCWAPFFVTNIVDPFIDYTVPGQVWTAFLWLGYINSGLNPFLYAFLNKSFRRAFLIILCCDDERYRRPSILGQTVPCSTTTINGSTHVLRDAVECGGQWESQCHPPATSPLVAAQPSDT
T5 sequence (Q01959 whole entry): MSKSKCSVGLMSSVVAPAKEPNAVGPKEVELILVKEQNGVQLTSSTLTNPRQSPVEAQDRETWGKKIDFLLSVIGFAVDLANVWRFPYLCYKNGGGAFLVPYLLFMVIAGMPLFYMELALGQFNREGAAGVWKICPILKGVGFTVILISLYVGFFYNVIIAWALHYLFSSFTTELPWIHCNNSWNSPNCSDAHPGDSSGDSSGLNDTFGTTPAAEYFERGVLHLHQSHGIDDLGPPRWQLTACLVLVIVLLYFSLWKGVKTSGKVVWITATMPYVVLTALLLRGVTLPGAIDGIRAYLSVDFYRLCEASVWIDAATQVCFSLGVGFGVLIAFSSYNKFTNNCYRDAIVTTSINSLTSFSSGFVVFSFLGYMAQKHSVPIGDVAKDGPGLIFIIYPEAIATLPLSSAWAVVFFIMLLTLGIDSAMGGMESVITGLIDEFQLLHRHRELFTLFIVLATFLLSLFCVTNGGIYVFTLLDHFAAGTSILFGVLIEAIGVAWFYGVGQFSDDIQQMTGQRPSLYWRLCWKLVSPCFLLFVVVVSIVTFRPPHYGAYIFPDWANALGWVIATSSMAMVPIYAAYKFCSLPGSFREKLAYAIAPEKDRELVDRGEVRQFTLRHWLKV
Chain of HRH4 (Q9H3N8 whole entry): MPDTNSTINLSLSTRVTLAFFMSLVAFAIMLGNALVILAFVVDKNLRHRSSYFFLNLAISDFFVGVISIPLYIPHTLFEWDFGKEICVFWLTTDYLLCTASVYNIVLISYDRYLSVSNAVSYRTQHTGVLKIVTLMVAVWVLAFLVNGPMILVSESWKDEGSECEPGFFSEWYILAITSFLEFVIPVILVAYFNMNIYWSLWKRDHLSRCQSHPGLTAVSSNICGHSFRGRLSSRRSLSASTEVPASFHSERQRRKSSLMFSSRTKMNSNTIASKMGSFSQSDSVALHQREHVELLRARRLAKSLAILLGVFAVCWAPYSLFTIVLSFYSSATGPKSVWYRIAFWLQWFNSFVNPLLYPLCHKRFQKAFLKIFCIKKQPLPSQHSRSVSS
T4 sequence (P50406 whole entry): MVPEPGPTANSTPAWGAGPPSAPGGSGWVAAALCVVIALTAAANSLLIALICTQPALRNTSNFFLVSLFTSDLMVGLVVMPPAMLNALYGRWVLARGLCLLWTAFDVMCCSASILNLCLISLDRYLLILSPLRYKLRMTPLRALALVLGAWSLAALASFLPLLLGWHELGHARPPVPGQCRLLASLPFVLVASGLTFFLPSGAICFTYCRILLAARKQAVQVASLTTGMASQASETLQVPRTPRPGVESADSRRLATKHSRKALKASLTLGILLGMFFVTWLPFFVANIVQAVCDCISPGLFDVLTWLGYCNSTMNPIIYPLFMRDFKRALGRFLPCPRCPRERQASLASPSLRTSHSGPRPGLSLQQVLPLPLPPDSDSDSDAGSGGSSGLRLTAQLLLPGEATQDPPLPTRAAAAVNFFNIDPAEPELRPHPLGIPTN

For `CCCCCCOc1nsnc1C1=CCCNC1` [N-desmethylxanomeline], the EC50 at HTR1D (Assay=Gi2) amounted to 36.2 nM; on HTR1D (Assay=GoA) it was 63.1 nM; at HTR1D (Assay=GoB), 25.8 nM; at HTR1D (Assay=Gz), 146 nM; on HTR2C it was 1940 nM. For the same compound, the Ki is 3720 nM on 5-HT4 and 2340 nM at DRD1.

For `CCCCCCOc1nsnc1C1=CCCN(C)C1` [Xanomeline], the Ki on 5-HT1E was more than 10000 nM; on 5-HT6 it was 3980 nM; on DAT it was more than 10000 nM; on HRH4, more than 10000 nM; at HTR1A it was 5890 nM; on β3, more than 10000 nM.
